Test results: patent publication US6569866B2, “Sustained-release nalmefene preparations and method” (priority 1996, dated 2003)

What was measured:
[1] = per os administration; cited from earlier work
[2] = Expected serum concentration after intranasal nalmefene spray (10 mg/ml solution, 0.1 ml per spray); assay type: in vivo, human
Experimental: A tartrate, stearate or palmitate formulation of nalmefene may be used, or nalmefene may be in the form of nalmefene hydrochloride, and formulated such that 1 gram of active nalmefene is mixed with 80 ml of distilled water, then adjusted to a pH of approximately 7.4 with dilute sodium hydroxide, and then isotonic saline is added along with a suitable preservative and antibacterial agent, to yield a total volume of 100 ml. This yields a nalmefene solution with a concentration of 10 mg/ml nalmefene. This final solution is passed through a 0.2 micron Millipor filter to remove bacteria and other undesired particles. The filtered solution is then placed aseptically into a container to which is then attached a metered dosing mechanism which allows approximately 0.1 ml to be delivered in each spray. An example of such a metered dosing system in found with the commercially marketed Stadol NS® (Bristol-Myers Squibb Co.). One spray to one nostril may be expected to yield a blood serum concentration of approximately 1 ng/ml 30-90 minutes after administration. […] Alternatively, the human may be given a loading dose of intravenous nalmefene and then transferred to a nasal administration regimen. A practical dosing schedule for nalmefene may be 1.5 mg intranasally every 12 hours. […]

[3] = single dose after acute spinal cord injury; Behrmann et al.; cited from earlier work
[4] = target: intraspinal kappa receptors (Rattus norvegicus, UniProt P34975); conditions: after spinal cord injury; Bakshi et al.; cited from earlier work
[5] = cited from earlier work
kappa-receptor = kappa-receptor (Homo sapiens, UniProt P41145); conditions: Kreek et al.; cited from earlier work
Sequence of kappa-receptor (P41145 whole entry): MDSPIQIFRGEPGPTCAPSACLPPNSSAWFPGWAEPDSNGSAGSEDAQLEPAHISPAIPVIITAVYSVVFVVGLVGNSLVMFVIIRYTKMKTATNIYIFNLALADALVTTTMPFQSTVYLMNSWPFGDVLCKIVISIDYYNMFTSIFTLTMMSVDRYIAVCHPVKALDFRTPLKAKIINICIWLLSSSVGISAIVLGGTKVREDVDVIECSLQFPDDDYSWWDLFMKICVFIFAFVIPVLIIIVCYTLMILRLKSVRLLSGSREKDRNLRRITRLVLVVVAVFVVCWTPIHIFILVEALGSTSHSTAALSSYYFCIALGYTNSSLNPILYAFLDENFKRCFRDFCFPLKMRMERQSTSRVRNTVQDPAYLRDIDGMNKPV

Sequence of intraspinal kappa receptors (P34975 whole entry): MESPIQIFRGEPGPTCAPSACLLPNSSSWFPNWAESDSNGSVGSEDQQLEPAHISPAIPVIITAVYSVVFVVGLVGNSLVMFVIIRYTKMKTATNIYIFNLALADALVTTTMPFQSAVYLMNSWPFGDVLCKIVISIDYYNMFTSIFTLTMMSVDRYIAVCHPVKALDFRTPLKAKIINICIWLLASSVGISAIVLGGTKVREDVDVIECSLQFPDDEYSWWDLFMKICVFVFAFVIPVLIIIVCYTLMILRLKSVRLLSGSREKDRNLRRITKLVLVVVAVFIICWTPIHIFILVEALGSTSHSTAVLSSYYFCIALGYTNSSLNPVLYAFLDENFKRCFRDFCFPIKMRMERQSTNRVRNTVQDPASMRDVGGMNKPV

**Q.** Which results are given for C=C1CC[C@@]2(O)[C@H]3Cc4ccc(O)c5c4[C@@]2(CCN3CC2CC2)[C@H]1O5 [nalmefene]?
**A.** first pass metabolism [1]: very significant first pass metabolism; steady state serum concentration ([2]; 5 consecutive 1 mg intranasal doses approximately 11 hours apart): approximately 1 ng/ml; blood serum concentration after one spray ([2]; one 0.1 ml spray of 10 mg/ml solution to one nostril, 30-90 minutes after administration): approximately 1 ng/ml; effect on neurological recovery / neuroprotection [3]: significant neuroprotective effect; effect on dynorphin induced motor dysfunction [4]: limits dynorphin induced motor dysfunction; average volume of distribution (Vd) ([5]; approximate average in non-elderly adult humans): ~8.6 L/kg; serum half life ([5]; in vivo): approximately 10.8 hours; elimination constant (Ke) ([5]; value furnished by a distributor of nalmefene): 0.0642 h⁻¹; potency as kappa-receptor antagonist compared with other antagonists (kappa-receptor): more potent than either naloxone or naltrexone

**Q.** With O=C1CC[C@@]2(O)[C@H]3Cc4ccc(O)c5c4[C@@]2(CCN3CC2CC2)[C@H]1O5 [naltrexone] as the molecule, how does the first pass metabolism [1] read?
**A.** The first pass metabolism was “very significant first pass metabolism”.
